Experimental findings from patent publication EP0457381B1, “Delta 2-cephem sulphones” (PHARMACIA S.p.A., priority 1990, dated 1991) are described below.

Each structure is given as a SMILES string.

In the assay the target is T1, human leukocyte elastase (HLE) (Homo sapiens, UniProt P08246).
T1 construct: purchased Calbiochem
T1 sequence (P08246 30-267): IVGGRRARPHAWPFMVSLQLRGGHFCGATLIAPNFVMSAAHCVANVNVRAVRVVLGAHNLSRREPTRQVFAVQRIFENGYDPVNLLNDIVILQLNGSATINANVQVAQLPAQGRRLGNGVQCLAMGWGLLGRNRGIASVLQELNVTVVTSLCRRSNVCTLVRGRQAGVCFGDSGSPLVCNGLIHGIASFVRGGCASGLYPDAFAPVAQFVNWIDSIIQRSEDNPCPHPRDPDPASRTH
In words: Kinetic parameters of HLE inhibition, fluorogenic substrate N-methoxysuccinyl-alanyl-alanyl-prolyl-valyl-7-amido-4-methylcoumarin. Format: biochemical. The conditions noted are these: HLE (Calbiochem), 37°C, phosphate buffer pH 7.4, I= 0.15, 1% DMSO and 1% MeCN; for Ki: apparent dissociation constant of HLE-inhibitor complex at steady state; for k₅/Ki: rate of formation of HLE-inhibitor complex. An excerpt: The inhibitory activity on human leukocyte elastase (HLE) of Δ-cephem sulphones of the invention, designated as Compound 4 and Compound 5 in Table 1 above, and of the Δ³-cephem sulphone Merck S.&D. L-659,286, which, to our best knowledge, is the most advanced β-lactam product under study as an HLE-inhibitor (Ann. Rev. Resp. Dis. 1988, 137:204; Journal of Cellular Biochemistry 1989, 39:47), was compared as described below.
The reference compound 7α-methoxy-3-(2-methyl-5-oxo-6-hydroxy-2,5-dihydro-1,2,4-triazin-3-yl)thiomethyl-3-cephem-4-pyrrolidine-carboxamide-1,1-dioxide (Merck's code-name; L-659,286) was synthesized in our laboratories from 7-amino-3-desacetoxy-cephalosporanic acid. Its structural identity and purity (≥95%) was confirmed by spectral and analytical data.
The kinetic parameters of HLE (Calbiochem) inhibition were determined at 37°C in phosphate buffer (pH 7.4, I= 0.15) with 1% DMSO and 1% MeCN as solubilizing vehicles, monitoring fluorometrically (λex= 383 nm; λem = 455 nm) the release of 7-amino-4-methylcoumarin from the fluorogenic substrate N-methoxysuccinyl-alanyl-alanyl-prolyl-valyl-7-amido-4-methylcoumarin. Best fit to the progress curves was obtained by a two-step mechanism (mechanism B in J.F. Morrison, TIBS 1982, 7:102; see also J.F. Morrison and C.T. Walsh, Advances in Enzymology, vol. 61, A. Meister editor, John Wiley & Sons 1988): [drawing 9] Product release versus time was analysed using the following function: [P] = vs t + (vi -vs (1-e)^-kt )/k [formula] wherein [P] = product concentration, vs = steady state rate, vi = initial rate of product release and k = k6 + (k5 /Ki )([I])/(1 + [S]/Km + [I]/Ki); Ki = k4 /k3 [formula] wherein [I] and [S] = inhibitor and substrate concentration, and Km = Michaelis constant for the enzymesubstrate pair (independently determined under the same experimental conditions). At steady state, inhibition is fully determined by the steady-state inhibition constant Ki* (steady state): Ki * = Ki (k6)/(k5 + k6) [formula]

Regarding `COC(=O)C1(C=CC(=O)OC(C)(C)C)C(C)=C(/C=C/C(=O)OC(C)(C)C)S(=O)(=O)[C@@H]2[C@@H](Cl)C(=O)N21` (stereo partly drawn) [Compound 5, Methyl-7α-Chloro-2,4-bis[2-tert-butoxycarbonylethenyl]-3-methyl-2-cephem-4-carboxylate-1,1-dioxide], the Ki amounted to 5.2 nM. In the case of `CO[C@H]1C(=O)N2C(C(=O)N3CCCC3)=C(CSc3nc(=O)c(O)nn3C)CS(=O)(=O)[C@H]12` [Reference compound, 7α-methoxy-3-(2-methyl-5-oxo-6-hydroxy-2,5-dihydro-1,2,4-triazin-3-yl)thiomethyl-3-cephem-4-pyrrolidine-carboxamide-1,1-dioxide, reference compound], the Ki stood at 140 nM and the k₅/Ki entry is reported as “k₅/Ki = 8,000 M⁻¹s⁻¹”. Turning to `COC(=O)C1(/C=C\C(=O)OC(C)(C)C)C(C)=CS(=O)(=O)[C@@H]2[C@@H](Cl)C(=O)N21` (stereo partly drawn) [Compound 4, Methyl 7α-chloro-4-[(Z)-2-tert-butoxycarbonylethenyl]-3-methyl-2-cephem-4-carboxylate-1,1-dioxide], the Ki came to 64 nM and the k₅/Ki result is given as “k₅/Ki = 7,200 M⁻¹s⁻¹”.
